Results on three compounds are retold here after patent US20220298213A1, “IN VIVO ENGINEERED CEREBLON PROTEIN” (Vividion Therapeutics, Inc., priority 2018, published 2022).

Common to all, as to assay type: binding
The target of one test is CRBN-287 (Homo sapiens, UniProt Q96SW2). The test is described as follows: Probe labeling at native and denatured states after pretreatment (Table 2). Also on record: endogenous in cells; host or cells: cell lysate. The protocol:
(§1) To determine whether the co-inhibition of C287 and C318 was due to a direct or indirect mechanism, CRBN was pretreated with various Michael acceptor compounds and then tested for probe labeling in its native and denatured states.
(§2) In each the cell lysate was pretreated with compound, for native state data the probe was immediately added and for denatured data the probe was added after an additional step of denaturation (schematic shown in FIG. 4).

The next test has as its target CRBN-318 (Homo sapiens, UniProt Q96SW2). The test is described as above. Also on record: endogenous in cells; host or cells: cell lysate. Here is the method:
as §1, §2

The next test addresses T1, BTK_481 (Homo sapiens, UniProt Q06187).
T1 construct: In each the cell lysate was pretreated with compound; endogenous in cells
The test is described as above. Conditions: screening concentration; for inhibition of probe labeling, BTK_481, Den.: denatured state; for inhibition of probe labeling, BTK_481, Nat.: native state.

For the next test, the target named is T2, TEC_449 (Homo sapiens, UniProt P42680).
T2 construct: In each the cell lysate was pretreated with compound; endogenous in cells
T2 sequence (P42680 1-631): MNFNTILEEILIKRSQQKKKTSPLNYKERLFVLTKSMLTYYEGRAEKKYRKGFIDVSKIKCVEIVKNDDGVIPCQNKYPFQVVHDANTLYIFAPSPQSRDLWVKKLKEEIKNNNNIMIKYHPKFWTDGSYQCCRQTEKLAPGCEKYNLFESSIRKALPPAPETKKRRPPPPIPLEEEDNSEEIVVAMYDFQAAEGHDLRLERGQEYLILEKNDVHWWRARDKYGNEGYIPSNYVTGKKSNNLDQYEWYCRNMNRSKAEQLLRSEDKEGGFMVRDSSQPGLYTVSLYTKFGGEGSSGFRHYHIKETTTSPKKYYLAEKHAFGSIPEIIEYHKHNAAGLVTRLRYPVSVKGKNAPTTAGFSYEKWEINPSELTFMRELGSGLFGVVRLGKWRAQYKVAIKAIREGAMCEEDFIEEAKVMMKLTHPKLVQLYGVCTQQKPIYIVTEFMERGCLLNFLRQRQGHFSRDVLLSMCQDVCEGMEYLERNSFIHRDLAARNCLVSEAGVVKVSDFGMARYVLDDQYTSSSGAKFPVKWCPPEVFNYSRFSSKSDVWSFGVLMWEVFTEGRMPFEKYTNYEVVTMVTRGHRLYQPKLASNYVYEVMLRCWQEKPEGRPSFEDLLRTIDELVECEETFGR
Described as above. Conditions: screening concentration; for inhibition of probe labeling, TEC_449, Den.: denatured state; for inhibition of probe labeling, TEC_449, Nat.: native state.

The target in the next test is T3, CRBN_441 (Homo sapiens, UniProt Q96SW2).
T3 construct: endogenous in cells; host or cells: cell lysate
Described as above. Here is the method: as §1, §2

The target of another test is T4, CRBN_343 (Homo sapiens, UniProt Q96SW2).
T4 construct: endogenous in cells; host or cells: cell lysate
The test is described as above. Here is the method:
as §1, §2

Another test has as its target T5, CRBN_322 (Homo sapiens, UniProt Q96SW2).
T5 construct: endogenous in cells; host or cells: cell lysate
The description is as above. Here is the method: as §1, §2

The target in another test is T6, CRBN_188 (Homo sapiens, UniProt Q96SW2).
T6 construct: endogenous in cells; host or cells: cell lysate
Described as above. The protocol:
as §1, §2

In another test the target is T7, CRBN_234 (Homo sapiens, UniProt Q96SW2).
T7 construct: endogenous in cells; host or cells: cell lysate
Described as above. The protocol:
as §1, §2

The next test deals with T8, CRBN_326 (Homo sapiens, UniProt Q96SW2).
T8 construct: endogenous in cells; host or cells: cell lysate
The description is as above. The protocol: as §1, §2

A further test concerns the target T9, CRBN_219 (Homo sapiens, UniProt Q96SW2).
T9 construct: endogenous in cells; host or cells: cell lysate
The description is as above. Here is the method: as §1, §2

For a further test, the target named is T10, CRBN_310 (Homo sapiens, UniProt Q96SW2).
T10 construct: endogenous in cells; host or cells: cell lysate
Described as above. Here is the method:
as §1, §2

In a further test the target is T11, CRBN_205 (Homo sapiens, UniProt Q96SW2).
T11 construct: endogenous in cells; host or cells: cell lysate
The test is described as above. Here is the method: as §1, §2

A further test deals with T12, CRBN Cys287 (Homo sapiens, UniProt Q96SW2).
T12 construct: endogenous in cells
The test is described as follows: Inhibition of iodoacetamide probe labeling of CRBN cysteines, cell lysate (Table 3A). The protocol:
(§3) “X@Y” means that x % inhibition of iodoacetamide probe labeling was observed by treatment of cell lysate with the give compound in each row of the table for 1 h at a concentration of y micromolar. There was consistently high inhibition at C318 in addition to C287, which can be attributed to an allosteric inhibition.

The next test deals with T13, CRBN Cys219 (Homo sapiens, UniProt Q96SW2).
T13 construct: endogenous in cells
The description is as above. Conditions: read-out: % inhibition of iodoacetamide probe labeling, Cys219. The protocol:
as §3

The next test deals with T14, CRBN Cys343 (Homo sapiens, UniProt Q96SW2).
T14 construct: endogenous in cells
Described as above. As to conditions: read-out: % inhibition of iodoacetamide probe labeling, Cys343. The protocol:
as §3

For another test, the target named is T15, CRBN Cys318 (Homo sapiens, UniProt Q96SW2).
T15 construct: endogenous in cells
The description is as above. Here is the method: as §3

The target of a further test is T16, CRBN Cys205 (Homo sapiens, UniProt Q96SW2).
T16 construct: endogenous in cells
The test is described as above. As to conditions: read-out: % inhibition of iodoacetamide probe labeling, Cys205. Here is the method:
as §3

In the next test the target is T17, CRBN Cys234 (Homo sapiens, UniProt Q96SW2).
T17 construct: endogenous in cells
Described as above. As to conditions: read-out: % inhibition of iodoacetamide probe labeling, Cys234. The protocol: as §3

The mark [1] stands for this setting: denatured state, probe added after denaturation, screening concentration.
[2] abbreviates: native state, cell lysate pretreated, screening concentration.
[3] abbreviates: denatured state, screening concentration.
The mark [4] stands for this setting: native state, screening concentration.
Where [5] appears, read: 0.8 micromolar, cell lysate, 1 h.
The mark [6] stands for this setting: 20 micromolar, cell lysate, 1 h.
[7] abbreviates: read-out: % inhibition of iodoacetamide probe labeling, Cys287.

Where two headings read alike, the source gives them in different places.

T1 sequence (Q06187 whole entry): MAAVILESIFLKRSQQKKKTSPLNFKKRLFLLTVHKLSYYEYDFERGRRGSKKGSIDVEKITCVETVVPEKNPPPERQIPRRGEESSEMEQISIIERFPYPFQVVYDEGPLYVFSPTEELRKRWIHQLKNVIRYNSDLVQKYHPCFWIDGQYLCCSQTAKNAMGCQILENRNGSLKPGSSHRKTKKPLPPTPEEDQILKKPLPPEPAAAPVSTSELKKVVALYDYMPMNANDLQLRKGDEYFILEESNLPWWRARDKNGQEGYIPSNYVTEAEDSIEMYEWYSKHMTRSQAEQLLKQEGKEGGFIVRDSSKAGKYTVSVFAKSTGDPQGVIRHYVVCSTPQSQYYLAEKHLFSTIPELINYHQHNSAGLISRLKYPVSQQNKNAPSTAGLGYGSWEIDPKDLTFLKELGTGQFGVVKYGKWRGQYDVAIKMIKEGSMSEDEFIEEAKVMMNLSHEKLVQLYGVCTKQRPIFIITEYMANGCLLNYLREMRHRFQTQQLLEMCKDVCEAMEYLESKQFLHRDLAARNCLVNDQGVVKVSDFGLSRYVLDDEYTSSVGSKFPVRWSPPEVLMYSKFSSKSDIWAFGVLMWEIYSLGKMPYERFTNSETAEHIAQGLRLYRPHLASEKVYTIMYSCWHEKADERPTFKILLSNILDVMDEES
T11 sequence (Q96SW2 whole entry): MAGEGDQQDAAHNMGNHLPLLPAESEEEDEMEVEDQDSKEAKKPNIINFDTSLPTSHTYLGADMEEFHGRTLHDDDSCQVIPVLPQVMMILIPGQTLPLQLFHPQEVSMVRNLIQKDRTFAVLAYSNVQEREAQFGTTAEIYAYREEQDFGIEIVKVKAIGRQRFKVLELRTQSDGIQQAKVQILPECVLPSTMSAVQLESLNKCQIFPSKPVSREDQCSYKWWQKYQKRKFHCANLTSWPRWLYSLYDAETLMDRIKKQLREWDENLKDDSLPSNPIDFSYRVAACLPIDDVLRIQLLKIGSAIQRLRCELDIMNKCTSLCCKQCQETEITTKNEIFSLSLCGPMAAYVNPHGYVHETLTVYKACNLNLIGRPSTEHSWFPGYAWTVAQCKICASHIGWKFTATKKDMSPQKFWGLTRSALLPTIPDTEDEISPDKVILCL
T15 sequence (Q96SW2 whole entry): as above
T12 sequence (Q96SW2 whole entry): as above
Sequence of CRBN-318 (Q96SW2 whole entry): as above
T6 sequence (Q96SW2 whole entry): as above
T10 sequence (Q96SW2 whole entry): as above
T5 sequence (Q96SW2 whole entry): as above
T7 sequence (Q96SW2 whole entry): as above
T9 sequence (Q96SW2 whole entry): as above
Sequence of CRBN-287 (Q96SW2 whole entry): as above
T4 sequence (Q96SW2 whole entry): as above
T8 sequence (Q96SW2 whole entry): as above
T13 sequence (Q96SW2 whole entry): as above
T3 sequence (Q96SW2 whole entry): as above
T16 sequence (Q96SW2 whole entry): as above
T17 sequence (Q96SW2 whole entry): as above
T14 sequence (Q96SW2 whole entry): as above

With `C=CC(=O)N1CCC(Oc2cccc(-c3ccccc3OC)c2)CC1` [drawing 206], the “inhibition of probe labeling, CRBN_287, Den.” value on CRBN-287 (setting [1]) amounted to 76%. The “inhibition of probe labeling, CRBN_287, Nat.” value at CRBN-287 (setting [2]) came out at 91%. Besides, the “inhibition of probe labeling, CRBN_318, Den.” value on CRBN-318 (setting [1]) was 28%. The “inhibition of probe labeling, CRBN_318, Nat.” value at CRBN-318 (setting [2]) was found to be 82%. Also, on BTK_481, the “inhibition of probe labeling, BTK_481, Den.” value is −28% and the “inhibition of probe labeling, BTK_481, Nat.” value is on record as 2%. On TEC_449, the “inhibition of probe labeling, TEC_449, Den.” value is reported as −4% and the “inhibition of probe labeling, TEC_449, Nat.” value was determined as 4%. For the same compound, the “inhibition of probe labeling, CRBN_441, Den.” value on CRBN_441 (setting [3]) is −22%. Also, on CRBN_343 (setting [3]), the “inhibition of probe labeling, CRBN_343, Den.” value is recorded as −12%. In addition, the “inhibition of probe labeling, CRBN_322, Den.” value at CRBN_322 (setting [3]) stood at 27%. For the same compound, the “inhibition of probe labeling, CRBN_322, Nat.” value on CRBN_322 (setting [4]) is 2%. The “inhibition of probe labeling, CRBN_188, Den.” value at CRBN_188 (setting [3]) is on record as −44%. Moreover, at CRBN_188 (setting [4]), the “inhibition of probe labeling, CRBN_188, Nat.” value was −16%. For the same compound, at CRBN_234 (setting [3]), the “inhibition of probe labeling, CRBN_234, Den.” value is given as 21%. Moreover, the “inhibition of probe labeling, CRBN_234, Nat.” value at CRBN_234 (setting [4]) is given as 27%. For the same compound, at CRBN_326 (setting [3]), the “inhibition of probe labeling, CRBN_326, Den.” value is given as −15%. The “inhibition of probe labeling, CRBN_219, Den.” value on CRBN_219 (setting [3]) is reported as 12%. The “inhibition of probe labeling, CRBN_219, Nat.” value at CRBN_219 (setting [4]) is on record as −25%. In addition, the “inhibition of probe labeling, CRBN_310, Den.” value on CRBN_310 (setting [3]) is reported as 35%. Further, the “inhibition of probe labeling, CRBN_310, Nat.” value at CRBN_310 (setting [4]) was 46%. Besides, at CRBN_205 (setting [3]), the “inhibition of probe labeling, CRBN_205, Den.” value is 0%. At CRBN_205 (setting [4]), the “inhibition of probe labeling, CRBN_205, Nat.” value was −20%.
As for `C=CC(=O)N1CC(Cc2ccc(C)cc2)C1`, the “inhibition of probe labeling, CRBN_287, Den.” value on CRBN-287 stood at 67%. Also, at CRBN-318, the “inhibition of probe labeling, CRBN_318, Den.” value is on record as 11%. Besides, at BTK_481, the “inhibition of probe labeling, BTK_481, Den.” value is 99% and the “inhibition of probe labeling, BTK_481, Nat.” value was 99%. Further, on TEC_449, the “inhibition of probe labeling, TEC_449, Den.” value is recorded as 98% and the “inhibition of probe labeling, TEC_449, Nat.” value amounted to 99%. The “inhibition of probe labeling, CRBN_441, Den.” value on CRBN_441 was −24%. Moreover, the “inhibition of probe labeling, CRBN_343, Den.” value on CRBN_343 is reported as −28%. Also, on CRBN_322, the “inhibition of probe labeling, CRBN_322, Den.” value amounted to 15% and the “inhibition of probe labeling, CRBN_322, Nat.” value turned out to be 36%. At CRBN_188, the “inhibition of probe labeling, CRBN_188, Den.” value was −21% and the “inhibition of probe labeling, CRBN_188, Nat.” value is recorded as −13%. For the same compound, at CRBN_234, the “inhibition of probe labeling, CRBN_234, Den.” value is listed as −7% and the “inhibition of probe labeling, CRBN_234, Nat.” value was −4%. The “inhibition of probe labeling, CRBN_326, Den.” value at CRBN_326 is −16%. In addition, at CRBN_219, the “inhibition of probe labeling, CRBN_219, Den.” value worked out at 24% and the “inhibition of probe labeling, CRBN_219, Nat.” value is −6%. Further, at CRBN_310, the “inhibition of probe labeling, CRBN_310, Den.” value is on record as −1% and the “inhibition of probe labeling, CRBN_310, Nat.” value was 9%. On CRBN_205, the “inhibition of probe labeling, CRBN_205, Den.” value was −11% and the “inhibition of probe labeling, CRBN_205, Nat.” value is reported as −23%.
Usually inhibition stands for the drop in the measured response relative to a control, in per cent. On to `COc1ccccc1-c1cccc(OC2CN(C(=O)/C(C#N)=C/C(C)C)C2)c1` [Example A8], for which the inhibition at 0.8 µM at CRBN Cys287 (setting [5]) is 80%; at CRBN Cys318 (setting [5]) it was 76%. The values for the inhibition at 20 µM at CRBN Cys287 (setting [6]) and against CRBN Cys318 (setting [6]) were 94% and 90%, respectively. Moreover, the inhibition at 100 µM on CRBN Cys287 (setting [7]) is 96%; on CRBN Cys219, -5%; at CRBN Cys343, 10%; at CRBN Cys318 (read-out: % inhibition of iodoacetamide probe labeling, Cys318, 100 micromolar, cell lysate, 1 h) it was 93%; at CRBN Cys205, 19%; at CRBN Cys234, 31%. Also, the inhibition at 500 µM on CRBN Cys287 (setting [7]) was determined as 98%; at CRBN Cys219, 4%; at CRBN Cys318 (read-out: % inhibition of iodoacetamide probe labeling, Cys318, 500 micromolar, cell lysate, 1 h), 96%; at CRBN Cys205 it was 32%; at CRBN Cys234 it was 44%.
